How the values were obtained:
COX-2 = COX-2 (Homo sapiens (Human), UniProt P35354); test: COX inhibitor screening assay kit, COX-2; format: biochemical; details: for SI (selectivity index): calculated from COX-1 and COX-2 IC50; for IC50: three separate experiments
Experimental: (§1) In test tubes, 25 mM Tris-HCl, pH 8.0, containing 5 mM EDTA, phenol, and 1 mM hematin was added. The test compounds were dissolved in DMSO and added in concentrations ranging from […] Dimethyl sulfoxide alone was applied to control test containers. COX-1 or COX-2 enzymes were added to the test tubes, which were then preincubated for 10 minutes at 37° C. The arachidonic acid substrate was added, and the tubes were further incubated at 37° C. for 2 minutes. The compound's immunochemical assay was used to calculate the amount of prostaglandin produced.
(§2) Three separate experiments were used to calculate the IC50 values. The selectivity index was calculated as follows: […]

COX-1 = COX-1 (Ovis aries, UniProt P05979); test: COX inhibitor screening assay kit, COX-1; format: biochemical; details: three separate experiments
Sequence of COX-1 (P05979 25-600 limits assumed): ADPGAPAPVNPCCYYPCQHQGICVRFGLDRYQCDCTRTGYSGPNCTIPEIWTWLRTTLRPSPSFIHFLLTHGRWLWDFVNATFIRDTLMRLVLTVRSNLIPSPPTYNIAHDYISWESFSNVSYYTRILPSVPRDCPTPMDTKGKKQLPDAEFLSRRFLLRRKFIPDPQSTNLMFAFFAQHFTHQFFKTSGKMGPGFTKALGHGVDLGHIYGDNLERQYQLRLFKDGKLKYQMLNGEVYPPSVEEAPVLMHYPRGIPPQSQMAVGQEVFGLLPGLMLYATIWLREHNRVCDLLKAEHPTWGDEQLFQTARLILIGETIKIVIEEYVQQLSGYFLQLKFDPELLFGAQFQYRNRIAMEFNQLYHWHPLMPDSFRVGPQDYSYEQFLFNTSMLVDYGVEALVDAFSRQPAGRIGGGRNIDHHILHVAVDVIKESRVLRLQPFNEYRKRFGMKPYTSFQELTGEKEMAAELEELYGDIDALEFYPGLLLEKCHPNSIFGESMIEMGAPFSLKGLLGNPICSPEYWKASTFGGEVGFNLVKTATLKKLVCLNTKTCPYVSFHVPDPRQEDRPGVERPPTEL
Experimental: as §1, §2

Sequence of COX-2 (P35354 18-604): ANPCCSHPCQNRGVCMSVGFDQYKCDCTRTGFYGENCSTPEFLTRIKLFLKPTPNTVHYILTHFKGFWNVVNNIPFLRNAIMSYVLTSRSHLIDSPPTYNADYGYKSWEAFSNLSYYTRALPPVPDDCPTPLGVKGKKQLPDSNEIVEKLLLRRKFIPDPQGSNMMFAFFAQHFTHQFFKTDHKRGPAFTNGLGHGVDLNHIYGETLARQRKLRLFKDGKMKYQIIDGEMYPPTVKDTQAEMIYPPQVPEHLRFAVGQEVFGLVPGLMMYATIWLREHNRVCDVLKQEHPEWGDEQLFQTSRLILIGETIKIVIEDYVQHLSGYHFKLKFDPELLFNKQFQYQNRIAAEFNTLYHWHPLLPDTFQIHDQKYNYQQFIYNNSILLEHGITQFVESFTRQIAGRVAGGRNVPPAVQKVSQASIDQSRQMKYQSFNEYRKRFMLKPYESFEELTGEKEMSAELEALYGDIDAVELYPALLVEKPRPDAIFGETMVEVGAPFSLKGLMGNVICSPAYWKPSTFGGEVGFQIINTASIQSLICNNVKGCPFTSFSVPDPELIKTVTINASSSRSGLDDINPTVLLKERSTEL

SMILES | SI (selectivity index) (COX-2) | IC50 (COX-2) [nM] | IC50 (COX-1) [µM]
O=C(O)CC1COCCN1Cc1cccc(-c2ccccn2)c1 (stereo not drawn) [Compound 3, {4-[3-(2-pyridinyl)benzyl]-3-morpholinyl}acetic acid] | 190.88 | 60 ± 75 | 11.5 ± 0.13
COc1cccc(-c2nn(-c3ccccc3)cc2CN(C)CCc2cn[nH]c2)c1 [Compound 2, N-{[3-(3-methoxyphenyl)-1-phenyl-1H-pyrazol-4-yl]methyl}-N-methyl-2-(1H-pyrazol-4-yl)ethanamine] | 132.64 | 80 ± 9 | 10.6 ± 0.33
O=C(O)COc1ccc(Cl)cc1C1CC(=O)Nc2cc3[nH]ncc3cc21 (stereo not drawn) [Compound 4, [4-chloro-2-(7-oxo-5,6,7,8-tetrahydro-1H-pyrazole[4,3-g]quinoline-5-yl)phenoxy]acetic acid] | 95.068 | 97 ± 15 | 9.19 ± 0.046
COc1ccc(CN(Cc2ccc(F)cc2)CC2CCCO2)cc1CO (stereo not drawn) [Compound 1] | 36.3 | 210 ± 10 | 7.62 ± 0.05
